Reference: patent publication US12162888B2, “Carboxamides as ubiquitin-specific protease inhibitors” (Valo Early Discovery, Inc., priority 2018, dated 2024)
Like-named read-outs stand apart in the source and are kept apart here.

Biological target: T1, USP25 (USP25-His6, Boston Biochem E-546) (Homo sapiens, UniProt Q9UHP3)
T1 construct: His6 (C); purchased Boston Biochem E-546
T1 sequence (Q9UHP3 1-1055): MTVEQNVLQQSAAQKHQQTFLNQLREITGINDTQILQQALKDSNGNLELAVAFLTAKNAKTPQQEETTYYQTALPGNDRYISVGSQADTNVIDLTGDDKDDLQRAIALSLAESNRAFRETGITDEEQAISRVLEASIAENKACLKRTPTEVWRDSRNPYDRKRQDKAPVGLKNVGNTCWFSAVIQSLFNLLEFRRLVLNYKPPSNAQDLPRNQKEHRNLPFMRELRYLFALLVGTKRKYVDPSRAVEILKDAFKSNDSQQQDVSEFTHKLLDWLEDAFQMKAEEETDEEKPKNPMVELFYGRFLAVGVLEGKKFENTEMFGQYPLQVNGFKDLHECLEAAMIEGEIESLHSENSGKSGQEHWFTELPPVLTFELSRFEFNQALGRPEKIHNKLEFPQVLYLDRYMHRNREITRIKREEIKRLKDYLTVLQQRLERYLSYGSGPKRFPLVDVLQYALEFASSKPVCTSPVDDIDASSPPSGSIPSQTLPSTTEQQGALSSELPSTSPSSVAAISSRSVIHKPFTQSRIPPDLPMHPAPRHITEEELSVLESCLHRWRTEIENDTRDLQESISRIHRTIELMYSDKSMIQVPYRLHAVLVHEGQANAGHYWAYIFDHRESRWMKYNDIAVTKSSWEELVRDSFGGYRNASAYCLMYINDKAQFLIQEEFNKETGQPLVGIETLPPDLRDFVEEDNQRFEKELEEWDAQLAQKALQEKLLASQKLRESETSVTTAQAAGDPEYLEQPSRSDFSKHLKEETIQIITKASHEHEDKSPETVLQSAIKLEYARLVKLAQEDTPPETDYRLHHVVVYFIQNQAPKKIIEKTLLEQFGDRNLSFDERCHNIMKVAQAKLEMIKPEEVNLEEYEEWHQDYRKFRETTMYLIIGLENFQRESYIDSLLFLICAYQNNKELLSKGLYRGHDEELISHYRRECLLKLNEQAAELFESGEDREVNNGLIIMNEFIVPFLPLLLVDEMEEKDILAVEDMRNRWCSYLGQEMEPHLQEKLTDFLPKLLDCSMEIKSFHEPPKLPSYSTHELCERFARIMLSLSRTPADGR
Test: Ubiquitin-Rhodamine 110 Assay for USP25 Activity, Example A-3
Type: biochemical
Conditions: Ubiquitin-Rhodamine 110 assay, Example A-3
Procedure: Example A-3: Biochemical Assay: Ubiquitin-Rhodamine 110 Assay for USP25 Activity
The assay was performed in a final volume of 9 μL in assay buffer containing 20 mM Tris-HCl (pH 8.0, (1M Tris-HCl, pH 8.0 solution; Corning 46-031-CM)), 3 mM BME (2-Mercaptoethanol; Sigma 63689-25ML-F), 0.03% BGG (0.22 μM filtered, Sigma, G7516-25G), and 0.01% Triton X-100 (Sigma, T9284-10L). Nanoliter quantities of 10-point, 3-fold serial dilution in DMSO was pre-dispensed into 1536 assay plates (Corning, #3724BC) for a final test concentration of 25 μM to 1.3 nM, top to lowest dose, respectively. Enzyme USP25, construct USP25-His6, (Boston Biochem E-546). Concentration and incubation times were optimized for the maximal signal-to-background while maintaining initial velocity conditions at a fixed substrate concentration. The final concentration of the enzyme in the assay was […]. Final substrate (Ub-Rh110; Ubiquitin-Rhodamine 110, R&D Systems #U-555) concentration was 25 nM with [Ub-Rh110]<<Km. 3 μL of 2× enzyme was added to assay plates (pre-stamped with compound) preincubated with […] for 30 minutes and then 3 μL of 2× Ub-Rh110 was added to assay plates. Plates were incubated for 45 minutes at room temperature before addition of 3 μL of stop solution (final concentration of 10 mM citric acid (Sigma, 251275-500G)). Fluorescence was read on the Envision (Excitation at 485 nm and Emission at 535 nm; Perkin Elmer) or on the PheraSTAR (Excitation at 485 nm and Emission at 535 nm; BMG Labtech).
For assay formats Example A-1(a), A-1(b), and A-2, data were reported as percent inhibition compared with control wells based on the following equation: % inh=1−((FLU−AveLow)/(AveHigh−AveLow)) where FLU=measured Fluorescence, AveLow=average Fluorescence of no enzyme control (n=16), and AveHighh=average Fluorescence of DMSO control (n=16). IC50 values were determined by curve fitting of the standard 4 parameter logistic fitting algorithm included in the Activity Base software package: IDBS XE Designer Model 205. Data is fitted using the Levenburg Marquardt algorithm.

[1] = IC50 ranges, read-out: USP25 A-3 IC50

SMILES | IC50 (read-out: USP25 A-3 IC50 range) | further results
Cc1ccc2c(N)c(C(=O)N[C@H]3CCc4nc(N5C[C@@H](N)[C@@]6(CCOC6)C5)ccc4C3)sc2n1 (single isomer, unassigned) [Example 431] | > 2000 nM | –
Cc1ccc2c(N)c(C(=O)N[C@H]3COc4cc(N5CC[C@@H]6CCC(N)C[C@@H]65)ccc4C3)sc2n1 (stereo in doubt) [Example 234, N-[(3R)-7-[(3aS,6S,7aS)-6-amino-octahydro-1H-indol-1-yl]-3,4-dihydro-2H-1-benzopyran-3-yl]-3-amino-6-methylthieno[2,3-b]pyridine-2-carboxamide] | – | IC50 [1]: 50 to 200 nM
Cc1cnc2c(N)c(C(=O)N[C@H]3CCc4cc(N5CC(C(=O)O)C5)ccc4C3)sc2n1 [Example 6-4, (S)-1-(6-(7-amino-3-methylthieno[2,3-b]pyrazine-6-carboxamido)-5,6,7,8-tetrahydronaphthalen-2-yl)azetidine-3-carboxylic acid] | 200 to 2000 nM | –
Cc1ccc2c(N)c(C(=O)N[C@@H]3COc4cc(N5C[C@@H]6CNC[C@H]6C5)ccc4C3)sc2n1 [Example 42, 3-amino-N-((S)-7-((3aS,6aS)-hexahydropyrrolo[3,4-c]pyrrol-2(1H)-yl)chroman-3-yl)-6-methylthieno[2,3-b]pyridine-2-carboxamide] | 200 to 2000 nM | –
Cc1ccc2c(N)c(C(=O)N[C@H]3COc4cc(N5CC6CCC(C5)N6)c(F)cc4C3)sc2n1 [Example 104, 3-amino-N-[(3R)-7-{3,8-diazabicyclo[3.2.1]octan-3-yl}-6-fluoro-3,4-dihydro-2H-1-benzopyran-3-yl]-6-methylthieno[2,3-b]pyridine-2-carboxamide] | 50 to 200 nM | –
Cc1ccc2c(N)c(C(=O)N[C@H]3COc4cc(N5CCNCC5)cc(F)c4C3)oc2n1 [Example 169, 3-amino-N-[(3R)-5-fluoro-7-(piperazin-1-yl)-3,4-dihydro-2H-1-benzopyran-3-yl]-6-methylfuro[2,3-b]pyridine-2-carboxamide] | – | IC50 (biochemical IC50 range, read-out: USP25 A-3): > 2000 nM
Cc1cc(C)c2c(N)c(C(=O)N[C@H]3COc4cc(N5CC6CCC(C5)N6)c(C#N)c(F)c4C3)sc2n1 [Example 241, 3-amino-N-[(3R)-6-cyano-7-{3,8-diazabicyclo[3.2.1]octan-3-yl}-5-fluoro-3,4-dihydro-2H-1-benzopyran-3-yl]-4,6-dimethylthieno[2,3-b]pyridine-2-carboxamide] | – | IC50 [1]: 50 to 200 nM
COC[C@@H]1CN(c2ccc3c(n2)OC[C@H](NC(=O)c2sc4nc(C)cc(C)c4c2N)C3)C[C@@H]1N [Example 348, 3-amino-N-[(3R)-7-[(3R,4R)-3-amino-4-(methoxymethyl)pyrrolidin-1-yl]-2H,3H,4H-pyrano[2,3-b]pyridin-3-yl]-4,6-dimethylthieno[2,3-b]pyridine-2-carboxamide] | > 2000 nM | –
Cc1ccc2c(N)c(C(=O)N[C@H]3CCc4nc(N5C[C@@H](N)[C@H](C(F)(F)F)C5)ccc4C3)sc2n1 [Example 364, 3-amino-N-[(6S)-2-[(3S,4R)-3-amino-4-(trifluoromethyl)pyrrolidin-1-yl]-5,6,7,8-tetrahydroquinolin-6-yl]-6-methylthieno[2,3-b]pyridine-2-carboxamide] | > 2000 nM | –
Cc1ccc2c(N)c(C(=O)N[C@H]3CCc4nc(N5C[C@@H]6CCN[C@H](C5)C6(F)F)ccc4C3)sc2n1 [Example 367, 3-amino-N-[(6S)-2-[(1R,5S)-9,9-difluoro-2,7-diazabicyclo[3.3.1]nonan-7-yl]-5,6,7,8-tetrahydroquinolin-6-yl]-6-methylthieno[2,3-b]pyridine-2-carboxamide] | 50 to 200 nM | –
Cc1ccc2c(N)c(C(=O)N[C@H]3CCc4nc(N5C[C@H]6CCN[C@@H](C5)C6(F)F)ccc4C3)sc2n1 [Example 368, 3-amino-N-[(6S)-2-[(1S,5R)-9,9-difluoro-2,7-diazabicyclo[3.3.1]nonan-7-yl]-5,6,7,8-tetrahydroquinolin-6-yl]-6-methylthieno[2,3-b]pyridine-2-carboxamide] | 50 to 200 nM | –
CCn1ccc2cc(C(=O)N[C@H]3CCc4nc(N5C[C@H](C(F)F)[C@@H](N)C5)ccc4C3)cnc21 [Example 370, N-[(6S)-2-[(3R,4S)-3-amino-4-(difluoromethyl)pyrrolidin-1-yl]-5,6,7,8-tetrahydroquinolin-6-yl]-1-ethyl-1H-pyrrolo[2,3-b]pyridine-5-carboxamide] | 200 to 2000 nM | –
CCn1ccc2cc(C(=O)N[C@H]3CCc4nc(N5C[C@@H](N)[C@H](C(F)F)C5)ccc4C3)cnc21 [Example 371, N-[(6S)-2-[(3S,4R)-3-amino-4-(difluoromethyl)pyrrolidin-1-yl]-5,6,7,8-tetrahydroquinolin-6-yl]-1-ethyl-1H-pyrrolo[2,3-b]pyridine-5-carboxamide] | > 2000 nM | –
CC(=O)N[C@@H]1CN(c2ccc3c(n2)CC[C@H](NC(=O)c2sc4nc(C)ccc4c2N)C3)C[C@H]1C(F)F [Example 372, 3-amino-N-[(6S)-2-[(3R,4S)-3-(difluoromethyl)-4-acetamidopyrrolidin-1-yl]-5,6,7,8-tetrahydroquinolin-6-yl]-6-methylthieno[2,3-b]pyridine-2-carboxamide] | > 2000 nM | –
Cc1ccc2c(N)c(C(=O)N[C@H]3CCc4nc(N5CCN[C@H](C(F)F)C5)ccc4C3)sc2n1 [Example 374, 3-amino-N-[(6S)-2-[(3S)-3-(difluoromethyl)piperazin-1-yl]-5,6,7,8-tetrahydroquinolin-6-yl]-6-methylthieno[2,3-b]pyridine-2-carboxamide] | > 2000 nM | –
Cc1ccc2c(N)c(C(=O)N[C@H]3CCc4nc(N5CCN[C@@H](C(F)F)C5)ccc4C3)sc2n1 [Example 375, 3-amino-N-[(6S)-2-[(3R)-3-(difluoromethyl)piperazin-1-yl]-5,6,7,8-tetrahydroquinolin-6-yl]-6-methylthieno[2,3-b]pyridine-2-carboxamide] | > 2000 nM | –
CN[C@H]1CN(c2ccc3c(n2)CC[C@H](NC(=O)c2sc4nc(C)ccc4c2N)C3)C[C@@H]1C(F)F [Example 376, 3-amino-N-[(6S)-2-[(3S,4R)-3-(difluoromethyl)-4-(methylamino)pyrrolidin-1-yl]-5,6,7,8-tetrahydroquinolin-6-yl]-6-methylthieno[2,3-b]pyridine-2-carboxamide] | > 2000 nM | –
CN[C@@H]1CN(c2ccc3c(n2)CC[C@H](NC(=O)c2sc4nc(C)ccc4c2N)C3)C[C@H]1C(F)F [Example 377, 3-amino-N-[(6S)-2-[(3R,4S)-3-(difluoromethyl)-4-(methylamino)pyrrolidin-1-yl]-5,6,7,8-tetrahydroquinolin-6-yl]-6-methylthieno[2,3-b]pyridine-2-carboxamide] | > 2000 nM | –
Cc1ccc2c(N)c(C(=O)N[C@H]3CCc4nc(N5C[C@H](C(F)F)[C@@H](N)C5)ncc4C3)sc2n1 [Example 380, 3-amino-N-[(6S)-2-[(3R,4S)-3-amino-4-(difluoromethyl)pyrrolidin-1-yl]-5,6,7,8-tetrahydroquinazolin-6-yl]-6-methylthieno[2,3-b]pyridine-2-carboxamide] | > 2000 nM | –
